Laboratory results: patent US10981932B2, “Macrocyclic indole derivatives” (Bayer Aktiengesellschaft, priority 2016, dated 2021)
Where a name gives a salt, the structure may show the parent alone. Read-outs that look alike come from different tables or passages of the source.

Legend:
[1] = system: SUDHL5; assay: Induction of cytotoxicity (CellTiter-Glo, 5 h), SUDHL5
[2] = system: SUDHL5; assay: Anti-proliferative effect (CellTiter-Glo, 72 h), SUDHL5; assay type: cell-based; settings: SUDHL5 cells, antiproliferation, median, read-out: Antiproli SUDHL5 [M] (median)
Method in brief: (§1)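 Luminescence from CellTiter-Glo, read 10 min after reagent addition, reports viable cell content after 72 h of compound treatment at 37 °C. A reference plate read at day 0 gives the starting baseline.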

[3] = system: SUDHL10; assay: Induction of cytotoxicity (CellTiter-Glo, 5 h), SUDHL10
[4] = biological target: MCL-1 (Homo sapiens, UniProt Q07820); assay: Protein-protein interaction assay MCL-1/Noxa BH3 peptide (MCL-1 assay), TR-FRET; assay type: binding; settings: MBP-MCL-1 / Noxa BH3-derived peptide, median
MCL-1, sequence (Q07820 whole entry): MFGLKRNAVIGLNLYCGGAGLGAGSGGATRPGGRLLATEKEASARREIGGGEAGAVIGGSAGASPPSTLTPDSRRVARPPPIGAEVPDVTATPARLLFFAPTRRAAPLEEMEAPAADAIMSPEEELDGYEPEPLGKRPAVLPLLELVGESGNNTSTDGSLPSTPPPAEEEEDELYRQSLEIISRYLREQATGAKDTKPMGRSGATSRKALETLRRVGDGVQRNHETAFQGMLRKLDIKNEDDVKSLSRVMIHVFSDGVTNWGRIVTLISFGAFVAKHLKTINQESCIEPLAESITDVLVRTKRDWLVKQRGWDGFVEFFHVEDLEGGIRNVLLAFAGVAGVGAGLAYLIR
Method in brief: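 Inhibition values were normalized between DMSO controls with all reagents and controls lacking MCL-1. The binding competition used 1 nM MBP-MCL-1 in pH 7 Tris buffer containing 50 mM KF and 100 mM NaCl, with a 10 min compound preincubation at 22 °C.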

[5] = system: SUDHL5; assay: Induction of caspase-3/7 activity (Caspase-Glo 3/7), SUDHL5; assay type: cell-based; settings: caspase-3/7 induction, SUDHL5 cells, 3 h treatment, median
Method in brief: (§2)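 Apoptosis induction measured as caspase-3/7 activity (Caspase-Glo 3/7) in DLBCL lines after 3 h treatment at 37 °C; EC50 derived relative to the reference compound's maximal induction, with C0 fixed at 1.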

[6] = system: MV-4-11; assay: Anti-proliferative effect (CellTiter-Glo, 72 h), MV-4-11; assay type: cell-based; settings: MV-4-11 cells, median, read-out: IC50 antiproliferation assay MV-4-11 [M] (median)
Description: Assessment of the Anti-Proliferative Effect of Compounds in Different Cell Lines
The impact of compounds on the proliferation of different cell lines was assessed using the CellTiter-Glo® Luminescent Cell Viability reagent from Promega (G7573). Of note, SUDHL10 and SUDHL5 (DLBCL), NCI-H929 (Multiple Myeloma), A2780 (ovarian carcinoma) as well as MV-4-11(AML) cells are sensitive to MCL-1 inhibition.
In parallel, cells were plated in a reference (day 0) plate for time zero determination.
Rim wells were excluded. The cells were incubated for 72 h hours in a humidified incubator at 37° C. The day 0 plate was measured by adding 30 μl/well of CTG solution (CellTiter-Glo® Luminescent Cell Viability reagent, Promega G7573) to time zero wells in the reference plate followed by a 10 minutes incubation and luminescence reading at 0.1 ms, using the PHERAstar FS microplate reader (BMG Labtech).
After 72 h incubation, the treated plates were measured in the same way as the day 0 plate mentioned above.

[7] = system: A2780; assay: Anti-proliferative effect (CellTiter-Glo, 72 h), A2780; assay type: cell-based; settings: A2780 cells, median, read-out: IC50 antiproliferation assay A2780 [M] (median)
Method in brief: as §1

[8] = system: SUDHL10; assay: Induction of caspase-3/7 activity (Caspase-Glo 3/7), SUDHL10; assay type: cell-based; settings: caspase-3/7 induction, SUDHL10 cells, 3 h treatment, median
Method in brief: as §2

[9] = read-out: Cytotox SUDHL5 [M] (median), SUDHL5 cells, cytotoxicity induction, CellTiter-Glo, 5 h incubation, median
[10] = read-out: Cytotox SUDHL10 [M] (median), SUDHL10 cells, cytotoxicity induction, CellTiter-Glo, 5 h incubation, median
[11] = Homo sapiens, SU-DHL-5, 5 h, read-out: Cytotox SUDHL5 [M] (median), SUDHL5 cells, cytotoxicity induction, CellTiter-Glo, 5 h, median
[12] = Homo sapiens, SU-DHL-5, 72 h, 72 h
[13] = Homo sapiens, SU-DHL10, 5 h, read-out: Cytotox SUDHL10 [M] (median), SUDHL10 cells, cytotoxicity induction, CellTiter-Glo, 5 h, median
[14] = Homo sapiens, SU-DHL-5, 72 h, 72 h incubation
[15] = Homo sapiens, SU-DHL10, 5 h, read-out: Cytotox SUDHL10 [M] (median), SUDHL10 cells, cytotoxicity induction, CellTiter-Glo, 5 h incubation, median
[16] = Homo sapiens, SU-DHL-5, 5 h, read-out: Cytotox SUDHL5 [M] (median), SUDHL5 cells, cytotoxicity induction, CellTiter-Glo, 5 h incubation, median

| Compound | IC50 [1, 9] | IC50 ([2]; 72 h incubation) | IC50 [3, 10] | IC50 [4] | EC50 [5] | IC50 [6] | IC50 [7] | IC50 ([7]; Homo sapiens, A2780, 72 h) | EC50 [8] | IC50 [1, 11] | IC50 [2, 12] | IC50 [3, 13] | EC50 ([5]; Homo sapiens, SU-DHL-5, 3 h) | IC50 ([6]; Homo sapiens, MV4-11, 72 h) | EC50 ([8]; Homo sapiens, SU-DHL10, 3 h) | IC50 ([1]; read-out: Cytotox SUDHL5 [M] (median), SUDHL5 cells, cytotoxicity induction, CellTiter-Glo, 5 h, median) | IC50 [2, 14] | IC50 [3, 15] | IC50 [1, 16] |
| --- | --- | --- | --- | --- | --- | --- | --- | --- | --- | --- | --- | --- | --- | --- | --- | --- | --- | --- | --- |
| Cn1nc(C(F)(F)F)c2c1COCCCCn1c(C(=O)O)c(CCCOc3cccc4ccccc34)c3cccc-2c31 (single isomer, unassigned) [Example 217, 1-methyl-7-[3-(naphthalen-1-yloxy)propyl]-3-(trifluoromethyl)-1,10,11,12,13,15-hexahydropyrazolo[4′,3′:9,10][1,6]oxazacycloundecino[8,7,6-hi]indole-8-carboxylic Acid] | 3.92e-06 M | 5.58e-06 M | 1.58e-05 M | 0.00251 µM | 3.5 µM | 1.52e-05 M | 2.92e-05 M | > 3.3e-05 M | 13.4 µM |  |  |  |  |  |  |  |  |  |  |
| CCc1nn(C)c2c1-c1cccc3c(CCCOc4cccc5cc(Cl)ccc45)c(C(=O)O)n(c13)CCCCOC2 (racemic) [Example 304, (rac)-11-(3-((6-chloronaphthalen-1-yl)oxy)propyl)-12-ethyl-10-methyl-4,5,6,7,9,10-hexahydropyrazolo[4′,3′:9,10][1,6]oxaazacycloundecino[8,7,6-hi]indole-2-carboxylic Acid] |  |  |  | 0.0105 µM |  |  |  | 1.34e-05 M |  | > 3.3e-05 M | 9.84e-06 M | > 3.3e-05 M | > 33 µM | 3.13e-05 M | > 33 µM |  |  |  |  |
| Cn1nc(CC(F)(F)F)c2c1COCCCCn1c(C(=O)O)c(CCCOc3cccc4ccccc34)c3cccc-2c31 (single isomer, unassigned) [Example 221, 1-methyl-7-[3-(naphthalen-1-yloxy)propyl]-3-(2,2,2-trifluoroethyl)-1,10,11,12,13,15-hexahydropyrazolo[4′,3′:9,10][1,6]oxazacycloundecino[8,7,6-hi]indole-8-carboxylic acid-N-ethylethanamine Salt] | > 3.3e-05 M | 9.75e-06 M | > 3.3e-05 M | 0.353 µM | > 33 µM | > 3.3e-05 M | 3.28e-05 M |  | > 33 µM |  |  |  |  |  |  |  |  |  |  |
| Cn1nc(COCc2ccc(C#N)cc2)c2c1COCCCCn1c(C(=O)O)c(CCCOc3cccc4ccccc34)c3cccc-2c31 (single isomer, unassigned; enantiomer 1) [Example 347, 3-({[(4-cyanobenzyl)oxy]methyl}-1-methyl-7-[3-(naphthalen-1-yloxy)propyl]-1,10,11,12,13,15-hexahydropyrazolo[4′,3′:9,101][1,6]oxazacycloundecino[8,7,6-hi]indole-8-carboxylic acid-N-ethylethanamine Salt (Enantiomer 1)] |  |  |  | 0.343 µM | > 33 µM | 1.2e-05 M |  | 9.45e-06 M |  |  | 4.2e-06 M | > 3.3e-05 M |  |  | > 33 µM | > 3.3e-05 M |  |  |  |
| Cc1ccc2c(C(C)CCOc3cccc4cc(F)ccc34)c(C(=O)O)n3c2c1-c1c(nn(C)c1C)COCCCC3 (single isomer, unassigned) [Example 279, 7-{4-[(6-fluoronaphthalen-1-yl)oxy]butan-2-yl}-2,3,4-trimethyl-2,10,11,12,13,15-hexahydropyrazolo[4′,3′:9,10][1,6]oxazacycloundecino[8,7,6-hi]indole-8-carboxylic Acid] | 2.05e-05 M | 7.56e-06 M | 2.94e-05 M | 1.6 µM | 25.5 µM | 1.57e-05 M | 7.5e-06 M |  | 26.6 µM |  |  |  |  |  |  |  |  |  |  |
| Cn1nc(C(F)(F)F)c2c1COCCCCn1c(C(=O)O)c(CCCOc3cccc4ccccc34)c3cccc-2c31 (single isomer, unassigned) [Example 218, 1-methyl-7-[3-(naphthalen-1-yloxy)propyl]-3-(trifluoromethyl)-1,10,11,12,13,15-hexahydropyrazolo[4′3′:9,10][1,6]oxazacycloundecino[8,7,6-hi]indole-8-carboxylic Acid] | 2.76e-05 M | 1.71e-05 M | > 3.3e-05 M | 0.559 µM | > 33 µM | 3.05e-05 M | 2.52e-05 M |  | > 33 µM |  |  |  |  |  |  |  |  |  |  |
| COCCn1nc(C2CC2)c2c1COCCCCn1c(C(=O)O)c(CCCOc3cccc4c3CCCC4)c3cccc-2c31 (single isomer, unassigned; enantiomer 1) [Example 165, 3-Cyclopropyl-1-(2-methoxyethyl)-7-[3-(5,6,7,8-tetrahydronaphthalen-1-yloxy)propyl]-1,10,11,12,13,15-hexahydropyrazolo[4′,3′:9,10][1,6]oxazacycloundecino[8,7,6-hi]indole-8-carboxylic acid-N-ethylethanamine Salt (Enantiomer 1)] | 5.71e-06 M |  |  | 0.00289 µM | 5.25 µM | 8.15e-06 M |  | 2.15e-05 M |  |  |  |  |  |  | 19.1 µM |  | 1.13e-05 M | 2.37e-05 M |  |
| COc1ccc2c(CCCOc3cccc4ccccc34)c(C(=O)O)n3c2c1-c1c(C)nn(C)c1COCCCC3 (single isomer, unassigned; enantiomer 1) [Example 352, 4-methoxy-1,3-dimethyl-7-[3-(naphthalen-1-yloxy)propyl]-1,10,11,12,13,15-hexahydropyrazolo[4′,3′:9,10][1,6]oxazacycloundecino[8,7,6-hi]indole-8-carboxylic Acid Ammonium Salt (Enantiomer 1)] |  |  |  | 0.0454 µM |  | 1.05e-05 M |  | > 3.3e-05 M |  | > 3.3e-05 M | 1.19e-05 M | > 3.3e-05 M | > 33 µM |  | > 33 µM |  |  |  |  |
| CN1CCCCn2c(C(=O)O)c(CCCOc3cccc4ccccc34)c3cccc(c32)-c2c(CC(F)(F)F)nn(C)c2C1 (racemic) [Example 222, (rac)-1,14-dimethyl-7-[3-(naphthalen-1-yloxy)propyl]-3-(2,2,2-trifluoroethyl)-10,11,12,13,14,15-hexahydro-1H-pyrazolo[3′,4′:8,9][1,6]diazacycloundecino[10,11,1-hi]indole-8-carboxylic Acid] |  |  |  | 0.00597 µM |  |  |  | 2.46e-05 M |  |  |  |  | 14.4 µM | 7.87e-06 M | 18.2 µM |  | 9.85e-06 M | 2.01e-05 M | 1.15e-05 M |
| Cc1c2c(nn1C)COCCCCn1c(C(=O)O)c(CCCOc3cccc4cc(C(F)(F)F)ccc34)c3cccc-2c31 (racemic) [Example 310] |  |  |  | 0.0331 µM |  |  |  | 6.58e-06 M |  | 2.36e-05 M | 5.42e-06 M | 1.75e-05 M | 27.4 µM | 1.31e-05 M | 21.3 µM |  |  |  |  |
| Cc1nn(C)c2c1-c1cccc3c(CCCOc4cccc5c4CCCC5)c(C(=O)O)n(c13)CCCCCN(C)C2 [Example 240, (rac)-1,3,15-Trimethyl-7-[3-(5,6,7,8-tetrahydronaphthalen-1-yloxy)propyl]-1,10,11,12,13,14,15,16-octahydropyrazolo[4′,3′:4,5][1,7]diazacyclododecino[3,2,1-hi]indole-8-carboxylic Acid] |  |  |  | 0.00885 µM |  |  |  | > 3.3e-05 M |  |  |  |  | 11.6 µM | 2.56e-05 M | > 33 µM |  | 1.19e-05 M | > 3.3e-05 M | 1.26e-05 M |
